# Results as given in PubChem BioAssay (NCI).
#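 Method: 48-hour compound exposure of cells in 96-well plates, five concentrations, linear interpolation of endpoints. GI50 is the concentration that inhibits growth by half. TGI denotes the concentration required for complete inhibition of growth.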
# How the values were obtained:
# Assay in all cases: NCI tumour cell line growth inhibition, 48 h
# SK-OV-3 ovarian = system: SK-OV-3 ovarian
# M14 melanoma = system: M14 melanoma
# OVCAR-4 ovarian = system: OVCAR-4 ovarian
# SN12C renal = system: SN12C renal
# SNB-19 CNS = system: SNB-19 CNS
# RPMI-8226 leukemia = system: RPMI-8226 leukemia
# UACC-257 melanoma = system: UACC-257 melanoma
# PC-3 prostate = system: PC-3 prostate
# K-562 leukemia = system: K-562 leukemia
# OVCAR-8 ovarian = system: OVCAR-8 ovarian
# SK-MEL-2 melanoma = system: SK-MEL-2 melanoma
# COLO 205 colon = system: COLO 205 colon
# HL-60(TB) leukemia = system: HL-60(TB) leukemia
# UO-31 renal = system: UO-31 renal
# NCI-H23 lung = system: NCI-H23 lung
# DU-145 prostate = system: DU-145 prostate
# NCI/ADR-RES ovarian = system: NCI/ADR-RES ovarian
# EKVX NSCLC = system: EKVX NSCLC
# MDA-MB-435 = system: MDA-MB-435
# A498 renal = system: A498 renal
# SR leukemia = system: SR leukemia
# NCI-H226 lung = system: NCI-H226 lung
# HCT-116 colon = system: HCT-116 colon
# 786-0 renal = system: 786-0 renal
# UACC-62 melanoma = system: UACC-62 melanoma
# TK-10 renal = system: TK-10 renal
# CCRF-CEM leukemia = system: CCRF-CEM leukemia
# HCT-15 colon = system: HCT-15 colon
# HOP-92 NSCLC = system: HOP-92 NSCLC
# HCC-2998 colon = system: HCC-2998 colon
# KM12 colon = system: KM12 colon
# U251 CNS = system: U251 CNS
# HT29 colon = system: HT29 colon
# SF-539 CNS = system: SF-539 CNS
# LOX IMVI melanoma = system: LOX IMVI melanoma
# MALME-3M melanoma = system: MALME-3M melanoma
# HOP-62 NSCLC = system: HOP-62 NSCLC
# SK-MEL-28 melanoma = system: SK-MEL-28 melanoma
# SW-620 colon = system: SW-620 colon
# RXF 393 renal = system: RXF 393 renal
# IGROV1 ovarian = system: IGROV1 ovarian
# ACHN renal = system: ACHN renal
# OVCAR-3 ovarian = system: OVCAR-3 ovarian
# HS 578T breast = system: HS 578T breast
# CAKI-1 renal = system: CAKI-1 renal
# OVCAR-5 ovarian = system: OVCAR-5 ovarian
# NCI-H460 lung = system: NCI-H460 lung
# A549 NSCLC = system: A549 NSCLC
# NCI-H522 lung = system: NCI-H522 lung
# T-47D breast = system: T-47D breast
# BT-549 breast = system: BT-549 breast
# SF-295 CNS = system: SF-295 CNS
# MCF7 breast = system: MCF7 breast
# MOLT-4 leukemia = system: MOLT-4 leukemia
# MDA-MB-231 breast = system: MDA-MB-231 breast
# SK-MEL-5 melanoma = system: SK-MEL-5 melanoma
# SF-268 CNS = system: SF-268 CNS
# SNB-75 CNS = system: SNB-75 CNS
structure (smiles),measurement,setting,value
COc1cc2cc(Oc3ccc(NC(=O)Nc4cc(C(F)(F)F)cc(C(F)(F)F)c4)cc3)c(C)nc2cc1OCCN1CCCCC1,GI50,SK-OV-3 ovarian,2040 nM
same,TGI,SK-OV-3 ovarian,3.9 µM
same,GI50,M14 melanoma,1680 nM
same,TGI,M14 melanoma,3.16 µM
same,GI50,OVCAR-4 ovarian,1890 nM
same,TGI,OVCAR-4 ovarian,3.61 µM
same,GI50,SN12C renal,1680 nM
same,TGI,SN12C renal,3.22 µM
same,GI50,SNB-19 CNS,1710 nM
same,TGI,SNB-19 CNS,3.18 µM
same,GI50,RPMI-8226 leukemia,2080 nM
same,TGI,RPMI-8226 leukemia,4.72 µM
same,GI50,UACC-257 melanoma,1980 nM
same,TGI,UACC-257 melanoma,3.97 µM
same,GI50,PC-3 prostate,1490 nM
same,TGI,PC-3 prostate,2850 nM
same,GI50,K-562 leukemia,1500 nM
same,TGI,K-562 leukemia,3.31 µM
same,GI50,OVCAR-8 ovarian,1870 nM
same,TGI,OVCAR-8 ovarian,3.72 µM
same,GI50,SK-MEL-2 melanoma,1850 nM
same,TGI,SK-MEL-2 melanoma,3.57 µM
same,GI50,COLO 205 colon,1890 nM
same,TGI,COLO 205 colon,3.62 µM
same,GI50,HL-60(TB) leukemia,2250 nM
same,TGI,HL-60(TB) leukemia,4.67 µM
same,GI50,UO-31 renal,1280 nM
same,TGI,UO-31 renal,2550 nM
same,GI50,NCI-H23 lung,1750 nM
same,TGI,NCI-H23 lung,3.32 µM
same,GI50,DU-145 prostate,1710 nM
same,TGI,DU-145 prostate,3.08 µM
same,GI50,NCI/ADR-RES ovarian,1680 nM
same,TGI,NCI/ADR-RES ovarian,3.24 µM
same,GI50,EKVX NSCLC,1810 nM
same,TGI,EKVX NSCLC,3.44 µM
same,GI50,MDA-MB-435,1780 nM
same,TGI,MDA-MB-435,3.22 µM
same,GI50,A498 renal,1750 nM
same,TGI,A498 renal,3.23 µM
same,GI50,SR leukemia,1750 nM
same,TGI,SR leukemia,5.79 µM
same,GI50,NCI-H226 lung,1700 nM
same,TGI,NCI-H226 lung,3.96 µM
same,GI50,HCT-116 colon,1750 nM
same,TGI,HCT-116 colon,3.24 µM
same,GI50,786-0 renal,1710 nM
same,TGI,786-0 renal,3.25 µM
same,GI50,UACC-62 melanoma,1820 nM
same,TGI,UACC-62 melanoma,3.31 µM
same,GI50,TK-10 renal,2060 nM
same,TGI,TK-10 renal,3.71 µM
same,GI50,CCRF-CEM leukemia,2110 nM
same,TGI,CCRF-CEM leukemia,4.71 µM
same,GI50,HCT-15 colon,1620 nM
same,TGI,HCT-15 colon,3.09 µM
same,GI50,HOP-92 NSCLC,1240 nM
same,TGI,HOP-92 NSCLC,2570 nM
same,GI50,HCC-2998 colon,1780 nM
same,TGI,HCC-2998 colon,3.29 µM
same,GI50,KM12 colon,1910 nM
same,TGI,KM12 colon,3.47 µM
same,GI50,U251 CNS,1790 nM
same,TGI,U251 CNS,3.41 µM
same,GI50,HT29 colon,1830 nM
same,TGI,HT29 colon,3.37 µM
same,GI50,SF-539 CNS,1650 nM
same,TGI,SF-539 CNS,3.03 µM
same,GI50,LOX IMVI melanoma,1710 nM
same,TGI,LOX IMVI melanoma,3.17 µM
same,GI50,MALME-3M melanoma,1590 nM
same,TGI,MALME-3M melanoma,3.02 µM
same,GI50,HOP-62 NSCLC,1640 nM
same,TGI,HOP-62 NSCLC,3.3 µM
same,GI50,SK-MEL-28 melanoma,1660 nM
same,TGI,SK-MEL-28 melanoma,3.07 µM
same,GI50,SW-620 colon,1790 nM
same,TGI,SW-620 colon,3.27 µM
same,GI50,RXF 393 renal,1590 nM
same,TGI,RXF 393 renal,3.2 µM
same,GI50,IGROV1 ovarian,1350 nM
same,TGI,IGROV1 ovarian,2790 nM
same,GI50,ACHN renal,1630 nM
same,TGI,ACHN renal,2990 nM
same,GI50,OVCAR-3 ovarian,1640 nM
same,TGI,OVCAR-3 ovarian,3.03 µM
same,GI50,HS 578T breast,1930 nM
same,TGI,HS 578T breast,4.67 µM
same,GI50,CAKI-1 renal,1420 nM
same,TGI,CAKI-1 renal,2860 nM
same,GI50,OVCAR-5 ovarian,1630 nM
same,TGI,OVCAR-5 ovarian,3.02 µM
same,GI50,NCI-H460 lung,1790 nM
same,TGI,NCI-H460 lung,3.35 µM
same,GI50,A549 NSCLC,1800 nM
same,TGI,A549 NSCLC,3.62 µM
same,GI50,NCI-H522 lung,1720 nM
same,TGI,NCI-H522 lung,3.46 µM
same,GI50,T-47D breast,1850 nM
same,TGI,T-47D breast,3.77 µM
same,GI50,BT-549 breast,1800 nM
same,TGI,BT-549 breast,3.41 µM
same,GI50,SF-295 CNS,1830 nM
same,TGI,SF-295 CNS,3.38 µM
same,GI50,MCF7 breast,1680 nM
same,TGI,MCF7 breast,3.43 µM
same,GI50,MOLT-4 leukemia,1730 nM
same,TGI,MOLT-4 leukemia,3.7 µM
same,GI50,MDA-MB-231 breast,1520 nM
same,TGI,MDA-MB-231 breast,2990 nM
same,GI50,SK-MEL-5 melanoma,1690 nM
same,TGI,SK-MEL-5 melanoma,3.08 µM
same,GI50,SF-268 CNS,1690 nM
same,TGI,SF-268 CNS,3.37 µM
same,GI50,SNB-75 CNS,1450 nM
same,TGI,SNB-75 CNS,2990 nM
